Molecular target: Recombinant human HSD17B13 enzyme (Homo sapiens (Human), UniProt Q7Z5P4)
Assay: HSD17b13 NAD(P)H-Glo Biochemical Assay
Details: 50 uM estradiol, 1 mM NAD+; read-out: HSD17β13 IC50
Outline: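 Recombinant human HSD17B13 was pre-incubated with inhibitor for 20 min at RT in 20 mM Tris pH 7.4 with 0.002% Tween-20 and 0.02% BSA. Reaction then ran with 50 uM estradiol and 1 mM NAD+ (final) for 3 h at 37° C. NADH formed was detected by NAD(P)H-Glo luminescence after 1 h at RT.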

Chain of Recombinant human HSD17B13 enzyme (Q7Z5P4 20-300): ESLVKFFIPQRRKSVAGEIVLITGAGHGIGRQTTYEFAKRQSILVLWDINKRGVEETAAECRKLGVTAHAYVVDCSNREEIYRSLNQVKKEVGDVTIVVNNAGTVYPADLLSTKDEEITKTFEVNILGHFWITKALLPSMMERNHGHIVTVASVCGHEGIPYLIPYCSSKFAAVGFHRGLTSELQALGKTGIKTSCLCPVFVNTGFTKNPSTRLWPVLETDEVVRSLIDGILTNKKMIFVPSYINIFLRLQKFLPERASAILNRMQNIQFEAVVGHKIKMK

IC50 [nM]	SMILES
100 to 1000	CN(c1ccc2c(c1)c(C#N)nn2-c1cc(C(F)(F)F)c(F)c(O)c1F)C1CCOCC1 [Compound 19.90, 1-(2,4-Difluoro-3-hydroxy-5-(trifluoromethyl)phenyl)-5-(methyl(tetrahydro-2H-pyran-4-yl)amino)-1H-indazole-3-carbonitrile]
100 to 1000	CNc1c(-n2nc(Cl)c3cc(N(C)C4CCOCC4)ccc32)cc(C(F)(F)F)c(F)c1O [Compound 19.91, 3-(3-Chloro-5-(methyl(tetrahydro-2H-pyran-4-yl)amino)-1H-indazol-1-yl)-6-fluoro-2-(methylamino)-5-(trifluoromethyl)phenol]
1000 to 30000	Cc1nn(-c2cc(O)c(F)c(NC(=O)C(F)(F)F)c2)c2cnc(N3CCOCC34CC4)cc12 [Compound 19.92, 2,2,2-Trifluoro-N-(2-fluoro-3-hydroxy-5-(3-methyl-5-(7-oxa-4-azaspiro[2.5]octan-4-yl)-1H-pyrazolo[3,4-c]pyridin-1-yl)phenyl)acetamide]
100 to 1000	CN(c1ccc2c(c1)c(N)nn2-c1cc(C(F)(F)F)c(F)c(O)c1F)C1CCOCC1 [Compound 19.93, 3-(3-Amino-5-(methyl(tetrahydro-2H-pyran-4-yl)amino)-1H-indazol-1-yl)-2,6-difluoro-5-(trifluoromethyl)phenol]
< 100	Cc1nn(-c2cc(C(F)(F)F)c(F)c(O)c2F)c2ccc(N3CCOCC34CC4)cc12 [Compound 19.94, 2,6-Difluoro-3-(3-methyl-5-(7-oxa-4-azaspiro[2.5]octan-4-yl)-1H-indazol-1-yl)-5-(trifluoromethyl)phenol]
100 to 1000	Cc1nn(-c2cc(C(F)(F)F)c(F)c(O)c2F)c2cnc(N3CCOCC34CC4)nc12 [Compound 19.95, 2,6-Difluoro-3-(3-methyl-5-(7-oxa-4-azaspiro[2.5]octan-4-yl)-1H-pyrazolo[4,3-d]pyrimidin-1-yl)-5-(trifluoromethyl)phenol]
1000 to 30000	Cc1nn(-c2cc(O)c(F)c(C(N)=O)c2)c2cnc(N3CCOCC34CC4)cc12 [Compound 19.96, 2-Fluoro-3-hydroxy-5-(3-methyl-5-(7-oxa-4-azaspiro[2.5]octan-4-yl)-1H-pyrazolo[3,4-c]pyridin-1-yl)benzamide]
1000 to 30000	Cc1nn(-c2cc(O)c(F)c(C(C)O)c2)c2cnc(N3CCOCC34CC4)cc12 (stereo not shown) [Compound 19.97, 2-Fluoro-3-(1-hydroxyethyl)-5-(3-methyl-5-(7-oxa-4-azaspiro[2.5]octan-4-yl)-1H-pyrazolo[3,4-c]pyridin-1-yl)phenol]
100 to 1000	Cc1nn(-c2cc(O)c(F)c(C(C)(F)F)c2)c2cnc(N3CCOCC34CC4)cc12 [Compound 19.98, 3-(1,1-Difluoroethyl)-2-fluoro-5-(3-methyl-5-(7-oxa-4-azaspiro[2.5]octan-4-yl)-1H-pyrazolo[3,4-c]pyridin-1-yl)phenol]
100 to 1000	Cc1nn(-c2cc(O)c(F)c(C(=O)N(C)C)c2)c2cnc(N3CCOCC34CC4)cc12 [Compound 19.99, 2-Fluoro-3-hydroxy-N,N-dimethyl-5-(3-methyl-5-(7-oxa-4-azaspiro[2.5]octan-4-yl)-1H-pyrazolo[3,4-c]pyridin-1-yl)benzamide]
< 100	Cc1nn(-c2cc(C(F)(F)F)c(F)c(O)c2F)c2cc(F)c(N3CCN(S(C)(=O)=O)CC34CC4)cc12 [Compound 19.100, 2,6-Difluoro-3-(6-fluoro-3-methyl-5-(7-(methylsulfonyl)-4,7-diazaspiro[2.5]octan-4-yl)-1H-indazol-1-yl)-5-(trifluoromethyl)phenol]
100 to 1000	Cc1nn(-c2cc(C(F)(F)F)c(F)c(O)c2F)c2ccc(N(C)C3CCOCC3)c(F)c12 [Compound 19.101, 2,6-Difluoro-3-(4-fluoro-3-methyl-5-(methyl(tetrahydro-2H-pyran-4-yl)amino)-1H-indazol-1-yl)-5-(trifluoromethyl)phenol]
100 to 1000	Cc1nn(-c2cc(C(F)(F)F)c(F)c(O)c2F)c2cnc(N(C)C3CCOCC3)c(F)c12 [Compound 19.102, 2,6-Difluoro-3-(4-fluoro-3-methyl-5-(methyl(tetrahydro-2H-pyran-4-yl)amino)-1H-pyrazolo[3,4-c]pyridin-1-yl)-5-(trifluoromethyl)phenol]
100 to 1000	Cc1nn(-c2ccc(F)c(O)c2)c2cc(F)c(N3CCN(S(C)(=O)=O)CC34CC4)cc12 [Compound 19.103, 2-Fluoro-5-(6-fluoro-3-methyl-5-(7-(methylsulfonyl)-4,7-diazaspiro[2.5]octan-4-yl)-1H-indazol-1-yl)phenol]
< 100	Cc1nn(-c2ccc(Cl)c(O)c2F)c2cc(F)c(N3CCN(S(C)(=O)=O)CC34CC4)cc12 [Compound 19.104, 6-Chloro-2-fluoro-3-(6-fluoro-3-methyl-5-(7-(methylsulfonyl)-4,7-diazaspiro[2.5]octan-4-yl)-1H-indazol-1-yl)phenol]
< 100	Cc1nn(-c2cc(C(F)(F)F)c(F)c(O)c2F)c2cnc(N3CCN(S(C)(=O)=O)C4(CCCCC4)C3)cc12 [Compound 19.105, 2,6-Difluoro-3-(3-methyl-5-(1-(methylsulfonyl)-1,4-diazaspiro[5.5]undecan-4-yl)-1H-pyrazolo[3,4-c]pyridin-1-yl)-5-(trifluoromethyl)phenol]
100 to 1000	CNc1nn(-c2cc(C(F)(F)F)c(F)c(O)c2F)c2ccc(N(C)C3CCOCC3)cc12 [Compound 19.106, 2,6-Difluoro-3-(5-(methyl(tetrahydro-2H-pyran-4-yl)amino)-3-(methylamino)-1H-indazol-1-yl)-5-(trifluoromethyl)phenol]
< 100	Cc1nn(-c2cc(C(F)(F)F)c(F)c(O)c2F)c2cnc(N3CCN(S(C)(=O)=O)CC34CC4)nc12 [Compound 19.107, 2,6-Difluoro-3-(3-methyl-5-(7-(methylsulfonyl)-4,7-diazaspiro[2.5]octan-4-yl)-1H-pyrazolo[4,3-d]pyrimidin-1-yl)-5-(trifluoromethyl)phenol]
< 100	Cc1nn(-c2cc(C(F)(F)F)c(F)c(O)c2F)c2cnc(N3CCO[C@H](c4ccccc4)C3)cc12 [Compound 19.108, (R)-2,6-Difluoro-3-(3-methyl-5-(2-phenylmorpholino)-1H-pyrazolo[3,4-c]pyridin-1-yl)-5-(trifluoromethyl)phenol]
100 to 1000	Cc1nn(-c2cc(C(F)(F)F)c(F)c(O)c2F)c2cnc(N3CCO[C@@H](c4ccccc4)C3)cc12 [Compound 19.109, (S)-2,6-Difluoro-3-(3-methyl-5-(2-phenylmorpholino)-1H-pyrazolo[3,4-c]pyridin-1-yl)-5-(trifluoromethyl)phenol]
< 100	Cc1nn(-c2cc(C(F)(F)F)c(Cl)c(O)c2F)c2cc(F)c(N3CCN(S(C)(=O)=O)CC34CC4)cc12 [Compound 19.110, 2-Chloro-6-fluoro-5-(6-fluoro-3-methyl-5-(7-(methylsulfonyl)-4,7-diazaspiro[2.5]octan-4-yl)-1H-indazol-1-yl)-3-(trifluoromethyl)phenol]
100 to 1000	CN(c1ccc2c(c1)c(C(N)=O)nn2-c1cc(C(F)(F)F)c(F)c(O)c1F)C1CCOCC1 [Compound 19.111, 1-(2,4-Difluoro-3-hydroxy-5-(trifluoromethyl)phenyl)-5-(methyl(tetrahydro-2H-pyran-4-yl)amino)-1H-indazole-3-carboxamide]
